From patent US10881642B2, “Autophagy enhancer and use thereof” (Industry-Academic Cooperation Foundation, Yonsei University, priority 2016, dated 2021)
Marks after values point to notes of the source that are not given here.

How the values were obtained:
[1] = Liver microsomal stability; format: in vitro ADME; details: 30 min incubation with human liver microsome, 10 μM
[2] = tested on: INS-1 cells transfected with prepro-hIAPP-HA; experiment: pro-hIAPP accumulation and apoptosis in transfected INS-1 cells; format: cell-based, mice; details: for accumulation of pro-hIAPP dimers: western blot, anti-HA
Protocol: (FIG. 13A) INS-1 cells transfected with non-amyloidogenic prepro-mIAPP-HA or amyloidogenic prepro-hIAPP-HA construct were treated with MSL or MSL-7 followed by western blot analysis using anti-HA antibody. (FIG. 13B) the transfected cells of (FIG. 13A) were treated with MSL-7 in the presence or absence of bafilomycin followed by western blot analysis using anti-HA antibody. (FIG. 13C) The transfected cells were treated with MSL-7 in the presence or absence of 3-MA, after which the amount of […] contained in the cell lysates were measured. (FIG. 13D) HFD-fed hIAPP+ mice were administered with MSL-7, and non-fasting glucose level was monitored. (FIG. 13E) IPGTT. (FIG. 13F) HFD-fed hIAPP+ mice were administered with MSL-7 for 8 weeks and the insulinogenic index was measured. (FIG. 13G) HFD-fed hIAPP+ mice were administered with MSL-7 for 8 weeks and the pancreatic section was obtained. All antibody was used for immunohistochemistry (left). The percentage of A11-[…] cells among DAPI+ cells (right). (FIG. 13H) FSB stained pancreatic section of HFD-fed hIAPP+ mice administered with MSL-7 for 8 weeks (left). Average fluorescence intensity/area (right).
Screening of autophagy enhancer. […] Luciferase assay. […] Firefly luciferase was determined after mixing 5 μl of lysate with 25 μl of Luciferase Assay Reagent II. Renilla luciferase was then determined after further addition of 20 ul of Stop&Glo Reagent. […] Cytotoxicity was determined by the measurement of LDH release in cell culture media using the LDH kit (Roche), according to the protocol from the manufacturer. […] Imaging and image quantification. […] Formation of acidic vesicular organelles was quantitated by staining the cells with acridine orange (Invitrogen, 5 ug/ml, 10 min). […] Cells or tissues were solubilized in lysis buffer supplemented with protease and phosphatase inhibitors and protein concentration was measured by the Bradford method. Ten to 30 micrograms were loaded on 4-12% Bis-Tris gel (NUPAGE, Invitrogen) or 8-15% SDS-PAGE, transferred to PVDF membranes and analyzed by western blot using the ECL method (Pierce). […]

ob/ob mice = experiment: Toxicity: hemogram, blood chemistry and organ biopsy in ob/ob mice; format: in vivo; design: BUN: unit not given here; details: for level of liver enzymes: 8-week treatment; for CBC / fatty liver (major organ biopsy) / tissue histology of major organs (heart, kidney, muscle, spleen, lung, pancreas): 8 weeks; for tissue histology of major organs (heart, kidney, muscle, spleen, lung, pancreas): biopsy; for ALB / ALP / ALT / AST / BUN / CA / CPK / CRE / DBIL / GGT / LDH / TCHO / TG: blood chemistry; for BASO / EOS / MONO / NEU / LYM / WBC / RBC / HGB / HCT / PLT: hemogram; for BASO / EOS: normal range 0.0-0.2; for MONO: normal range 0.0-0.4; for NEU: normal range 0.1-2.4; for LYM: normal range 0.9-9.3; for WBC: normal range 1.8-10.7; for RBC: normal range 6.36-9.42; for HGB: normal range 11.0-15.1; for HCT: normal range 38.5-59.0; for PLT: normal range 592-2972
Protocol: Organs were harvested from ob/ob mice administered with MSL or MSL-7 for 8 weeks and stained with H&E for histological analysis. […] Other than that, no significant changes were observed (Scale Bar. 500 μm). […]
Finally, we studied whether MSL or MSL-7 has systemic toxicity. CBC was not changed by MSL or MSL-7 (Table 1).
Finally, in the present disclosure, the toxicity of the present enhancers were tested. The 8-week treatment of MSL or MSL-7 improved the metabolic profile, and reduced the level of liver enzymes (Table 1 below). […] In the major organ biopsy, there were found no side effects. Rather the fatty liver was improved (FIG. 14).
Table 1 indicates the hemogram and blood chemistry analyzed after administration of the present autophagy enhancer for 8 week in vivo. […] Other than that, there are no adverse changes were found.

Row | Structure (SMILES) | microsomal stability, remaining [1] | accumulation of pro-hIAPP dimers [2] | level of liver enzymes (ob/ob mice) | CBC (ob/ob mice) | fatty liver (major organ biopsy) (ob/ob mice) | tissue histology of major organs (heart, kidney, muscle, spleen, lung, pancreas) (ob/ob mice) | ALB (ob/ob mice; 8 week) [g/dL] | ALP (ob/ob mice; 8 week) | ALT (ob/ob mice; 8 week) | AST (ob/ob mice; 8 week) | BUN (ob/ob mice; 8 week) | CA (ob/ob mice; 8 week) [mg/dL] | CPK (ob/ob mice; 8 week) [U/L] | CRE (ob/ob mice; 8 week) [mg/dL] | DBIL (ob/ob mice; 8 week) [mg/dL] | GGT (ob/ob mice; 8 week) [U/L] | LDH (ob/ob mice; 8 week) | TCHO (ob/ob mice; 8 week) [mg/dL] | TG (ob/ob mice; 8 week) | BASO (ob/ob mice; 8 week) [K/μL] | further results
1 | COc1oc(-c2ccccc2Cl)nc1S(=O)(=O)c1ccccc1 [MSL-7, 2-(2-chlorophenyl)-5-methoxy-4-(phenylsulfonyl) oxazole] | 90.5% | reduced | reduced | not changed | improved | no significant alteration | 1.1 ± 1.0 | 278 ± 26.11^b U/L | 146.9 ± 21.59^b U/L | 153.8 ± 12.81^b U/L | 20 ± 0.89 | 10.75 ± 0.32 | 241.3 ± 18.19 | 1 ± 0 | <0.5 | <5 | 810 ± 112.40^c U/L | 136.9 ± 9.73 | 78.6 ± 22.50^b mg/dL | 0.01 ± 0.01 | apoptosis of cells transfected with prepro-hIAPP ([2]; in the presence of 3-MA): significantly reduced; serum TG level and LDH level compared to MSL (ob/ob mice; 8 week): significantly lower; EOS (ob/ob mice; 8 week): 0.04 ± 0.01 K/μL; MONO (ob/ob mice; 8 week): 0.28 ± 0.05 K/μL; NEU (ob/ob mice; 8 week): 1.97 ± 0.16 K/μL; LYM (ob/ob mice; 8 week): 3.97 ± 0.38 K/μL; WBC (ob/ob mice; 8 week): 6.26 ± 0.52 K/μL; RBC (ob/ob mice; 8 week): 9.22 ± 0.12 M/μL; HGB (ob/ob mice; 8 week): 13.60 ± 0.19 g/dL; HCT (ob/ob mice; 8 week): 49.25 ± 0.78%; PLT (ob/ob mice; 8 week): 1031 ± 55 K/μL
2 | CSc1oc(-c2ccccc2)nc1S(=O)(=O)c1ccc(F)cc1 [MSL] | less than 10% | reduced | reduced | not changed | improved | no significant alteration | 1.1 ± 0.10 | 267 ± 35.02^b U/L | 183.7 ± 35.71^b U/L | 158.1 ± 16.39^c U/L | 21.13 ± 1.38 | 11.13 ± 0.24 | 323.8 ± 29.68 | 0.75 ± 0.14 | <0.5 | <5 | 1428 ± 148.90^b U/L | 150 ± 12.22 | 13.9 ± 16.41^a mg/dL | 0.05 ± 0.01 | EOS (ob/ob mice; 8 week): 0.165 ± 0.06 K/μL; MONO (ob/ob mice; 8 week): 0.35 ± 0.109 K/μL; NEU (ob/ob mice; 8 week): 2.34 ± 0.51 K/μL; LYM (ob/ob mice; 8 week): 4.73 ± 0.95 K/μL; WBC (ob/ob mice; 8 week): 7.64 ± 1.54 K/μL; RBC (ob/ob mice; 8 week): 8.82 ± 0.54 M/μL; HGB (ob/ob mice; 8 week): 14.30 ± 0.56 g/dL; HCT (ob/ob mice; 8 week): 46.9 ± 2.4%; PLT (ob/ob mice; 8 week): 1081 ± 61 K/μL
